Source: patent US7629341B2, “Human ADAM-10 inhibitors” (Symphony Evolution, Inc., priority 2003, dated 2009)

Tests used:
[1] = target: T1, ADAM-10 (UniProt O14672); experiment: ADAM-10 enzyme assay, cleavage of a fluorogenic 10-residue peptide; type: biochemical, mouse or human (mADAM-10 or hADAM-10); conditions: in vitro;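 also: mouse or human ADAM-10 at 5 nM active enzyme, pH 8.0 HEPES buffer with CaCl2 and NP-40, compounds titrated 100 µM down to 0.5 nM, fluorescence read after 16 h at room temperature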
T1 sequence (O14672 1-748): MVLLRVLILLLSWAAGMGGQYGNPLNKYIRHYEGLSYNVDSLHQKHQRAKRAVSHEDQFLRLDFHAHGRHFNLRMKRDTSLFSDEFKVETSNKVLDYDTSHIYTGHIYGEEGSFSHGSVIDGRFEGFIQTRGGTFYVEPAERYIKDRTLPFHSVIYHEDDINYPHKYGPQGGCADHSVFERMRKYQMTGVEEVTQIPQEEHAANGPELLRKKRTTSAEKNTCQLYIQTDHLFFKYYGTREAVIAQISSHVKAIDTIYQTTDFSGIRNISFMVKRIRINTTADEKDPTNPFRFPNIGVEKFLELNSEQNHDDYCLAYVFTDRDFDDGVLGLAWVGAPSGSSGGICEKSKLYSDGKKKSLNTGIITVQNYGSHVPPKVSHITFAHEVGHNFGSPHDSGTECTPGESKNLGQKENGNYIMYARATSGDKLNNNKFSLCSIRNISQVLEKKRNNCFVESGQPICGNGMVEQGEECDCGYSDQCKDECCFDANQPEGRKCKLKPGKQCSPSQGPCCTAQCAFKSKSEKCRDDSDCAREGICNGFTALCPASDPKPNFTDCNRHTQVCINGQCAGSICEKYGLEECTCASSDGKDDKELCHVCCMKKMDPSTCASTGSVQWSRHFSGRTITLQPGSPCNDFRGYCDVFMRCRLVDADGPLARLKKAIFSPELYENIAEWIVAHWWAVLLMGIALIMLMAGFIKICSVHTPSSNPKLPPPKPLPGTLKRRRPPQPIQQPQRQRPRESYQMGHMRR
Description: mADAM-10 or hADAM-10 activity was measured as the ability to cleave a 10-residue peptide (DABCYL-Leu-Leu-Ala-Gln-Lys-*-LeuArg-Ser-Ser-Arg-EDANS). […] Enzyme was diluted to a final active concentration of 5 nM in Buffer A (50 mM HEPES 8.0, 100 mM NaCl, 1 mM CaCl2 and 0.01% NP-40). Serial dilutions for compounds were performed ranging from 100 μM to 0.5 nM using a Beckman Biomek 2000 in polypropylene plates (Greiner). […] This reaction was incubated for 16 hr at RT and fluorescence was read using identical conditions.

[2] = target: TACE (TNF-alpha converting enzyme, ADAM-17) (Homo sapiens, UniProt P78536); experiment: In vitro metalloprotease inhibition, TACE; type: biochemical
Chain of TACE (TNF-alpha converting enzyme, ADAM-17) (P78536 215-824): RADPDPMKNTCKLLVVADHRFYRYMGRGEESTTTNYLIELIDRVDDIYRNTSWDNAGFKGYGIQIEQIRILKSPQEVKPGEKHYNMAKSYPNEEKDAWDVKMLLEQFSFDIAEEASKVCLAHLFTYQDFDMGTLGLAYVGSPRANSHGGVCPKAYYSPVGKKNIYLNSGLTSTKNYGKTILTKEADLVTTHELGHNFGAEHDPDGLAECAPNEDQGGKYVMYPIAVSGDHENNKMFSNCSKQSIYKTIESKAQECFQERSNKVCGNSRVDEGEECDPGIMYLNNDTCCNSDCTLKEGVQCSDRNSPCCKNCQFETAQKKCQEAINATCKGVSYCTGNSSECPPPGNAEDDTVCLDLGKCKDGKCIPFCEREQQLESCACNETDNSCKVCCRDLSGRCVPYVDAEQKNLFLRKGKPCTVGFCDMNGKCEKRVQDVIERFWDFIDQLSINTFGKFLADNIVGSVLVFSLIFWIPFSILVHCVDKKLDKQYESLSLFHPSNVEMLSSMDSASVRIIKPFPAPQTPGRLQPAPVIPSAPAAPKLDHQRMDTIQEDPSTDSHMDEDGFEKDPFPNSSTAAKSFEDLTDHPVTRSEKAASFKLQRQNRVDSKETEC
Source text: (§1) Blank cells indicate lack of data only.

[3] = target: T2, MMP-1 (Fibroblast collagenase) (Homo sapiens, UniProt P03956); experiment: In vitro metalloprotease inhibition, MMP-1; type: biochemical
T2 sequence (P03956 100-469): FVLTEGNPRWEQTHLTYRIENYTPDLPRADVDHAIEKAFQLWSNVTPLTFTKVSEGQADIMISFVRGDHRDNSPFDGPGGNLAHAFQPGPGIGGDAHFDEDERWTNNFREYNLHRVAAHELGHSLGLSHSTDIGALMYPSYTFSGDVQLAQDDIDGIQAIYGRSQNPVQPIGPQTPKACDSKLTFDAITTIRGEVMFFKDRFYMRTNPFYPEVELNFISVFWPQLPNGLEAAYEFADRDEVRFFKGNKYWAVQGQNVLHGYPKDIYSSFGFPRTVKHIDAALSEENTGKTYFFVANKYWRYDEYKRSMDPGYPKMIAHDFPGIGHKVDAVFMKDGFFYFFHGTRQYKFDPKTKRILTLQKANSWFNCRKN
Source text: as §1

[4] = target: T3, MMP-2 (72 kDa gelatinase, gelatinase A) (Homo sapiens, UniProt P08253); experiment: In vitro metalloprotease inhibition, MMP-2; type: biochemical
T3 sequence (P08253 110-660): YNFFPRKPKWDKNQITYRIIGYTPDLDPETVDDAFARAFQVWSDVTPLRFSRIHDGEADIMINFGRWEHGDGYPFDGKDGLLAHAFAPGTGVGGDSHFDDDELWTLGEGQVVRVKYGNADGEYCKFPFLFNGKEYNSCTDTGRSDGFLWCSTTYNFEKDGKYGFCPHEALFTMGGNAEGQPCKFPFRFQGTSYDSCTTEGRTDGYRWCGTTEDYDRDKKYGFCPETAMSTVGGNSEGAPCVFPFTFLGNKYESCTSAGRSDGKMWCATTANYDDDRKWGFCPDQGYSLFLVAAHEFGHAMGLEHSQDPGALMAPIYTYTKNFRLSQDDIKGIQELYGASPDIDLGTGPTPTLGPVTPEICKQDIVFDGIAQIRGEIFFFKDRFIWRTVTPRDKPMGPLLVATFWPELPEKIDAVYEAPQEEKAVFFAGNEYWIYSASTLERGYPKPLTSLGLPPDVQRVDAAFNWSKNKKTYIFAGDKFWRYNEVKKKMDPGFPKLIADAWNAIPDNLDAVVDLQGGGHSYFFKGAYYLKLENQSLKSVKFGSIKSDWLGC

[5] = target: MMP-3 (Stromelysin-1) (Homo sapiens, UniProt P08254); experiment: In vitro metalloprotease inhibition, MMP-3; type: biochemical
Chain of MMP-3 (Stromelysin-1) (P08254 100-477, species assumed): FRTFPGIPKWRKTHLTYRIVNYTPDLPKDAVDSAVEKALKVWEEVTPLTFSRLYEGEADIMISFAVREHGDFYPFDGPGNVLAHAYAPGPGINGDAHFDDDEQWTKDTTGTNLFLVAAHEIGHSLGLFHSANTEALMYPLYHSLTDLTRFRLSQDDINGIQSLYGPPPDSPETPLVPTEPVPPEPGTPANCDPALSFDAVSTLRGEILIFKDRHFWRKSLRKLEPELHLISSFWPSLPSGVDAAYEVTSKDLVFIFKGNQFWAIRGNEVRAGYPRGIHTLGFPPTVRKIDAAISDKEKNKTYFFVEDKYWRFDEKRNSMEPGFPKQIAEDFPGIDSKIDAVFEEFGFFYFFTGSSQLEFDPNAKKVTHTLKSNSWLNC
Source text: as §1

[6] = target: MMP-13 (collagenase-3) (Homo sapiens, UniProt P45452); experiment: In vitro metalloprotease inhibition, MMP-13; type: biochemical
[7] = target: MMP-8 (Neutrophil collagenase) (Homo sapiens, UniProt P22894); experiment: In vitro metalloprotease inhibition, MMP-8; type: biochemical
Chain of MMP-8 (Neutrophil collagenase) (P22894 101-467, species assumed): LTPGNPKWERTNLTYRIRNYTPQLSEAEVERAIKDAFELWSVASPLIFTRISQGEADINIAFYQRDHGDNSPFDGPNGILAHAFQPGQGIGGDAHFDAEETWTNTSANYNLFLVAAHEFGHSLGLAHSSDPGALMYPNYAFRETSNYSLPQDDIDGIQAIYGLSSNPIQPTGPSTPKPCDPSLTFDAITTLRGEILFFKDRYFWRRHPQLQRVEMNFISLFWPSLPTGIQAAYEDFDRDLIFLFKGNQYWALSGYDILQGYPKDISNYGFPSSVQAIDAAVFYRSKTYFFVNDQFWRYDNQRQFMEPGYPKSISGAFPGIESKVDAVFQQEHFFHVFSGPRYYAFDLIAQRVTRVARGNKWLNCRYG

[8] = target: MMP-9 (92 kDa gelatinase, gelatinase B) (Homo sapiens, UniProt P14780); experiment: In vitro metalloprotease inhibition, MMP-9; type: biochemical
Chain of MMP-9 (92 kDa gelatinase, gelatinase B) (P14780 94-707, species assumed): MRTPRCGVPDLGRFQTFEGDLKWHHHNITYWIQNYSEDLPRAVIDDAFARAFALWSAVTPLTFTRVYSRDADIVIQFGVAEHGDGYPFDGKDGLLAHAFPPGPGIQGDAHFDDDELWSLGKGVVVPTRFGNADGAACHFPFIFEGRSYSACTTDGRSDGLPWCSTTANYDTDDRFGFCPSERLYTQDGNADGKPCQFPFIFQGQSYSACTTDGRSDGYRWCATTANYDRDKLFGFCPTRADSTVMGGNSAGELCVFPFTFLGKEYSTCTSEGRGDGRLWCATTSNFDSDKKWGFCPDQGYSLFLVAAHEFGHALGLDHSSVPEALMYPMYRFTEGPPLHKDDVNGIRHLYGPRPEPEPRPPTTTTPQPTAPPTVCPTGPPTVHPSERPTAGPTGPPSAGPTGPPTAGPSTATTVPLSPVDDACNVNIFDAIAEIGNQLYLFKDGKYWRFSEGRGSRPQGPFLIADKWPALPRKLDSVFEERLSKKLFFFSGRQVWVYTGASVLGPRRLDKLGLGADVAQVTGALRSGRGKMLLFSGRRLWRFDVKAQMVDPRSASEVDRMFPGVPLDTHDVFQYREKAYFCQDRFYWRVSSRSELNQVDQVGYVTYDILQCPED

Row | Structure (SMILES) | IC50 [1] | IC50 [2] | IC50 [3] | IC50 [4] | IC50 [5] | IC50 [6] | IC50 [7] | IC50 [8]
1 | O=C(NO)[C@H]1CN(S(=O)(=O)NC(=O)N2CCOCC2)CCN1S(=O)(=O)c1cc(F)c(Oc2ccc(Cl)cc2)c(F)c1 [Entry 38] | < 50 nM | 50 to 1000 nM | 1000 to 20000 nM | < 50 nM | < 50 nM | < 50 nM | – | –
2 | O=C(NO)[C@H]1CN(S(=O)(=O)NC(=O)N2CCCCC2)CCN1S(=O)(=O)c1cc(F)c(Oc2ccc(Cl)cc2)c(F)c1 [Entry 37] | < 50 nM | 50 to 1000 nM | 1000 to 20000 nM | < 50 nM | < 50 nM | < 50 nM | – | –
3 | O=C(NO)[C@H]1CN(C(=O)C(=O)N2CCOCC2)CCN1S(=O)(=O)c1cc(F)c(Oc2ccc(Cl)cc2)c(F)c1 [Entry 31] | < 50 nM | 50 to 1000 nM | 1000 to 20000 nM | < 50 nM | 50 to 1000 nM | < 50 nM | – | –
4 | O=C(NO)[C@H]1CN(C(=O)N2CCOCC2)CCN1S(=O)(=O)c1cc(F)c(Oc2ccc(Cl)cc2)c(F)c1 [Entry 30] | < 50 nM | 50 to 1000 nM | 1000 to 20000 nM | < 50 nM | 50 to 1000 nM | < 50 nM | < 50 nM | 50 to 1000 nM
5 | COCCOC(=O)N1CCN(S(=O)(=O)c2cc(F)c(Oc3ccc(Cl)cc3)c(F)c2)[C@@H](C(=O)NO)C1 [Entry 15] | – | 50 to 1000 nM | 1000 to 20000 nM | – | 50 to 1000 nM | – | – | –

The remaining lines, values ahead:

Row | IC50 [1] | IC50 [2] | IC50 [3] | IC50 [4] | IC50 [5] | IC50 [6] | IC50 [7] | IC50 [8] | Structure (SMILES)
6 | < 50 nM | 50 to 1000 nM | 1000 to 20000 nM | < 50 nM | 50 to 1000 nM | < 50 nM | – | – | O=C(NO)[C@H]1CN(S(=O)(=O)c2cccnc2O)CCN1S(=O)(=O)c1cc(F)c(Oc2ccc(Cl)cc2)c(F)c1 [Entry 45]
7 | < 50 nM | < 50 nM | 50 to 1000 nM | < 50 nM | < 50 nM | < 50 nM | – | – | CN(C)CCS(=O)(=O)N1CCN(S(=O)(=O)c2cc(F)c(Oc3ccc(Cl)cc3)c(F)c2)[C@@H](C(=O)NO)C1 [Entry 54]
8 | < 50 nM | 50 to 1000 nM | 1000 to 20000 nM | < 50 nM | 50 to 1000 nM | < 50 nM | – | – | O=C(NO)[C@H]1CN(C(=O)c2cccnc2)CCN1S(=O)(=O)c1cc(F)c(Oc2ccc(Cl)cc2)c(F)c1 [Entry 59]
9 | < 50 nM | < 50 nM | 1000 to 20000 nM | < 50 nM | 50 to 1000 nM | < 50 nM | – | – | O=C(NO)[C@H]1CN(S(=O)(=O)Cc2ccncc2)CCN1S(=O)(=O)c1cc(F)c(Oc2ccc(Cl)cc2)c(F)c1 [Entry 34]
